Results: patent publication US4600721A, “Pharmaceutical preparation” (Ludwig Heumann & Co., GmbH, priority 1984, dated 1986)

How the values were obtained:
[1] = test system: lipoxygenase and cyclooxygenase; conditions: known inhibitors, statement in words; cited from earlier work
[2] = test system: LTC 4 synthesis and release; experiment: Inhibition of LTC 4 synthesis and release in vitro; format: cell-based
[3] = test system: Acute inflammatory oedema of the paws; experiment: Rat paw oedema test (carrageenin); format: in vivo; conditions: po, i.g., 1 hour after carrageenin injection, inhibition of increase in paw volume, male rats
Method: Acute inflammatory oedema of the paws was induced in male rats (100-120 g) by subplantar injection of 0.1 ml of 2% carrageenin (dissolved in aqueous 0.9% NaCl solution). The volume of the paws was measured with a paw volume measuring instrument 1 hour and 4 hours after the carrageenin injection. The differences in paw volume between the two measurements was calculated. The test substances were suspended in 1% tylose and administered intragastrally through a stomach tube one hour after the carrageenin injection.
The controls were given vehicle alone (1% tylose). The percentage inhibition of increase in volume in the treated animals was obtained from a comparison with the untreated controls. The average inhibitory doses (ED50) were calculated on the basis of the regression graphs.

[4] = test system: PGE 2 synthesis and release; experiment: Inhibition of PGE 2 synthesis and release in vitro; format: cell-based
[5] = test system: leucocyte migration; experiment: Leucocyte migration test (carrageenin-soaked polyester sponges); format: in vivo, rat; conditions: male rats, 24 hours
Method: Polyester sponges soaked in 2% carrageenin solution were implanted subcutaneously in the neck region of male rats (140-150 g) (see G. A. Higgs et al, Eur. J. Pharmacol. 66, 81 (1980), A. W. Ford-Hutchinson et al, J.Pharmacol. Methods 1, 3 (1978)). The sponges were removed after 24 hours. The leucocytes which had migrated in were washed out with a PBS solution (pH 7.4, 0.5% trypsin, 10 units/ml of heparin) for 30 minutes at 37° C. The sponges were then carefully squeezed and centrifuged (15 minutes, 500 revs/min). The leucocytes in the washing liquid were then counted. The test substances which had been taken up in 1% tylose and the vehicle (1% tylose) were administered intragastrally with a stomach tube immediately after implantation of the sponge and then after 5 hours and after 21 hours. The percentage inhibition of leucocyte migration after administration of the test substances was determined by comparison with the controls. The average inhibitory doses (ED50) were calculated from the regression graphs.

CC(C(=O)O)c1ccc2oc(-c3ccc(Cl)cc3)nc2c1 (centres unmarked) [Benoxaprofene]
selective inhibitory action on lipoxygenase or inhibition of both lipoxygenase and cyclooxygenase [1]: known inhibitors of this kind

CC=NNc1nc2ccccc2s1 [Example 1, N-(benzothiazol-2-yl)-acetaldehyde hydrazone]
LTC 4 (% of controls) ([2]; at 10^-5): > 100 % of controls
LTC 4 (% of controls) ([2]; at 10^-6): > 100 % of controls
ED50 [3]: 15 mg/kg
PGE 2 (% of controls) ([4]; at 10^-4): 12 % of controls
PGE 2 (% of controls) ([4]; at 10^-5): 38 % of controls
PGE 2 (% of controls) ([4]; at 10^-6): 89 % of controls
Inhibition of leucocyte migration (control = 0%) ([5]; 40 mg/kg i.g.): 50%

CC(C)=NNc1nc2ccccc2s1 [Example 2, N-(benzothiazol-2-yl)-acetone hydrazone]
LTC 4 (% of controls) ([2]; at 10^-4): 16 % of controls
LTC 4 (% of controls) ([2]; at 10^-5): 41 % of controls
LTC 4 (% of controls) ([2]; at 10^-6): 89 % of controls
ED50 [3]: 10 mg/kg
PGE 2 (% of controls) ([4]; at 10^-4): 20 % of controls
PGE 2 (% of controls) ([4]; at 10^-5): 43 % of controls
PGE 2 (% of controls) ([4]; at 10^-6): 103 % of controls
Inhibition of leucocyte migration (control = 0%) ([5]; 50 mg/kg i.g.): 34%

CCC=NNc1nc2ccccc2s1 [Example 3, N-(benzothiazol-2-yl)-propionaldehyde hydrazone]
LTC 4 (% of controls) ([2]; at 10^-4): 24 % of controls
LTC 4 (% of controls) ([2]; at 10^-5): > 100 % of controls
LTC 4 (% of controls) ([2]; at 10^-6): > 100 % of controls
ED50 [3]: 20 mg/kg
PGE 2 (% of controls) ([4]; at 10^-4): 8 % of controls
PGE 2 (% of controls) ([4]; at 10^-5): 37 % of controls
PGE 2 (% of controls) ([4]; at 10^-6): 61 % of controls

CCC(C)=NNc1nc2ccccc2s1 [Example 4, N-(benzothiazol-2-yl)-methyl ethyl ketone hydrazone]
ED50 [3]: 10 mg/kg

CC=NNc1nc2ccccc2o1 [Example 5, N-(benzoxazol-2-yl)-acetaldehyde hydrazone]
ED50 [3]: 20 mg/kg

CC(C)=NNc1nc2ccccc2o1 [Example 6, N-(benzoxazol-2-yl)-acetone hydrazone]
ED50 [3]: 10 mg/kg

CCC=NNc1nc2ccccc2o1 [Example 7, N-(benzoxazol-2-yl)-propionaldehyde hydrazone]
ED50 [3]: 20 mg/kg

O=CNNc1nc2ccccc2s1 [Example 8, benzothiazol-2-one-(β-formyl hydrazone)]
LTC 4 (% of controls) ([2]; at 10^-4): 11 % of controls
LTC 4 (% of controls) ([2]; at 10^-5): 70 % of controls
LTC 4 (% of controls) ([2]; at 10^-6): > 100 % of controls
ED50 [3]: 14 mg/kg
PGE 2 (% of controls) ([4]; at 10^-4): 82 % of controls
PGE 2 (% of controls) ([4]; at 10^-5): 112 % of controls
PGE 2 (% of controls) ([4]; at 10^-6): 105 % of controls
Inhibition of leucocyte migration (control = 0%) ([5]; 50 mg/kg i.g.): 67%
